Test [1] has as its system Staphylococcus aureus (ATCC #6538). In words: Zone of inhibition testing on agar plates. Format: cell-based. As to conditions: for Observed Zone of Inhibition (mm): 7 day old sample; for Zone (mm): thymol powder in well. How it is done: The samples prepared above were cut into 10 mm-diameter circular sections of thymol-treated and untreated material. These samples were placed on a freshly streaked sample of staphylococcus aureus on trypticase soy agar. After 24 hours incubation at 37° C., plates were measured for zones of inhibitions surrounding the samples. To calculate the zone of inhibition, the test material was brought into contact with a known population of test microorganisms on an agar plate for a specified period of time. At the end of the contact time the area of inhibited colony formation around the test material was measured. The size of this area of no growth was a measure of leaching of the antimicrobial agent from the test material. In this procedure, the test material was cut into small discs and placed on an agar plate evenly spread with a test microorganism. The plates were incubated for 24 hours at ideal growth conditions. Following incubation, the diameter of the circle of no growth around the disc was measured. The zone of inhibition was reported as the difference between the sample disc diameter and the average of the measured no growth zone diameters. Materials and Reagents • Microorganisms: frozen stock of Staphylococcus aureus (ATCC 6538). • Mueller-Hinton agar (MHA) plates or equivalent plated media. Prepare following manufacturer's directions. Store at 4±2° C. Alternatively pre-made plates can be utilized. • Mueller-Hinton broth (MHB) or equivalent liquid media. Prepare following manufacturers directions. Store at 4±2° C. Alternately pre-made media can be utilized. • Sterile cotton swabs or equivalent. • Sterile forceps. • Positive control disc: Vanocymicin susceptibility discs (6 mm), 30 μg/disc (BD and Company; Sparks, Md.). • Test material, cut into 8 mm discs. • Calipers or other measuring device. • Other ancillary lab supplies. 2. Staphylococcus aureus (ATCC 6538) is inoculated from an overnight plate or MHB into 5 ml of sterile MHB in a 35° C. incubator for 18-24 hrs. 3. The overnight culture is then adjusted using MHB to the 0.5 McFarland barium sulphate standards (1×10^8 CFU/ml) or approximately 0.15 OD with a 0.2 cm light path at 660 nanometer. 1. Pre-warm, to room temperature, MHA plates. […] 3. Moisten a sterile applicator swab in the standardized cell suspension and express any excess moisture by rotating the swab against the glass above the liquid in the tube. Inoculate the entire surface of each plate, inoculating the surface completely in three different directions to ensure uniform growth. 5. Store the inoculated plates at room temperature for 10-15 minutes to allow the medium to absorb the moisture from the inoculum. 6. Apply discs of test material to the surface of the inoculated medium with a sterile forceps and tap them to ensure that they are in complete contact with the agar surface. A positive control (vancomycin disc) and negative control (uncoated disc) should be used on each plate. 7. Invert the inoculated plates and incubate them at 35° C. for 18-24 hours. 8. Examine the plates from the back, viewed against a black background and illuminated with reflected light. With calipers, measure the diameter of each zone of inhibition to the nearest whole millimeter. Zone of Inhibition=diameter of no growth area−diameter of disc First, exemplary Delivery Compositions 1 and 2 were created. A sucrose blend was melted on a stove top to prepare a carbohydrate matrix. An active agent was added to the molten sucrose to provide a 2% loading of thymol. After the mixture was melted, analysis was performed to determine the amount of thymol retained within the sucrose. Delivery Composition 1 contained approximately 0.72 wt. % thymol and Delivery Composition 2 contained approximately 0.74 wt. % thymol. Both Delivery Compositions 1 and 2 were placed in a well in a media with a plate inoculated with Staphylococcus aureus (ATCC #6538) and a zone of inhibition for each sample was measured as described above. […]

The test system is the same in test [2]. Nature of the test: Shake flask test ASTM E2149-01, anti-bacterial activity of thymol-treated coform substrates. Type of test: cell-based. Particulars: 7 day old sample, 1 hour exposure. How it is done: Five sections of coform material approximately 17 cm by 17 cm were prepared and weighed to determine the amount of thymol needed for loading of thymol at a weight percent of 0.3%, 0.6% and 1.0%. The determined quantity of thymol to provide thymol as a percentage was placed in an excess (39.0 grams) of ethanol to be dissolved. The coform substrates were placed into a plastic bag and the ethanol/thymol mixture was added. Using a cylindrical glass jar rolled on the outside of the sealed plastic bag, the sheets were rolled to evenly express the liquid throughout the coform squares. The coform was then removed from the bag and placed in a fume hood to allow the ethanol to evaporate off. The remaining dry sheets containing thymol were removed from the hood after one hour and placed in a dry plastic bag. Samples were aged 7 days and tested for anti-bacterial activity. To determine the anti-bacterial activity of the samples after 7 days, the shake flask test of ASTM […]-01 “Standard Test Method for Determining the Antimicrobial Activity of Immobilized Antimicrobial Agents Under Dynamic Contact Conditions” was used. Approximately 1 gram samples of thymol-treated and untreated coform substrates were placed in individual capped flasks containing approximately 10^5 CFU of a Staphylococcus aureus (ATCC #6538) in phosphate buffered saline. Flasks were shaken at maximum speed on a wrist-action shaker for 1 hour. […] The active agent thymol has volatilized off of the sample within the 7 day time period.

Where [3] appears, read: 0.3% thymol add-on to coform substrate.
The mark [4] stands for this setting: 0.6% thymol add-on to coform substrate.
Where [5] appears, read: 1% thymol add-on to coform substrate.

Regarding `Cc1ccc(C(C)C)c(O)c1` [Thymol, thymol], the “Observed Zone of Inhibition (mm)” value in test [1] (setting [3]), in test [1] (setting [4]) and in test [1] (setting [5]) was 0 mm each time. The zone of inhibition in test [1] (neat powder, various amounts, after 1 day) is given as 10-15 mm. Besides, the “Zone (mm)” value was found to be 10 mm in test [1] (weight 0.0018 grams); 12 mm in test [1] (weight 0.0045 grams); 13 mm in test [1] (weight 0.0353 grams); 12 mm in test [1] (weight 0.0789 grams); 15 mm in test [1] (weight 0.1609 grams). The “Log10 Reduction of Bacteria” value in test [2] (setting [3]), in test [2] (setting [4]) and in test [2] (setting [5]) was “No Reduction” in each case.

The values are drawn from patent publication US20120263780A1, “Carbohydrate Entrapped Active Agent Delivery Composition and Articles Using the Same” (priority 2009, published 2012).
